From US20190187129A1, “CANCER MODELING PLATFORMS AND METHODS OF USING THE SAME” (Wake Forest University Health Sciences, priority 2016, published 2019)
Entries after “also recorded” stand apart in the source; their conditions may differ.

Assays:
[1] = test system: mesothelioma organoids; experiment: Biomarker-driven drug study on patient organoids (MTS, Annexin V/Ki67 IHC, H&E); format: cell-based, human; conditions: 0.1 μM, 1 μM, 10 μM; 96 hours
Procedure: (§1) 5 μm thick organoid sections were created from paraffin-embedded constructs, and then deparaffinized for staining. IHC was used to visualize biomarkers cytokeratin 5/6 (CK5/6), calretinin, and thrombomodulin. Blocking was performed by incubation under Dako Protein Block for 15 minutes. Primary antibodies CK5/6 (Abcam, ab17133, raised in mouse) and calretinin (Abcam, ab702, raised in rabbit) or CK5/6 and thrombomodulin (Abcam, ab109189, raised in rabbit) were applied to the sections on the slides at a 1:200 dilution in Dako Antibody Diluent and incubated at room temperature for 1 hour. Next, secondary Alexa Fluor 488 or Alexa Fluor 594 antibodies with appropriate species reactivity were applied to all samples at 1:200 in Dako Antibody Diluent and left at room temperature for 1 hour (anti-mouse Alexa Fluor 488 and anti-rabbit Alexa Fluor 594, Life Technologies, Carlsbad, Calif., A-11070). Sections were then incubated with Dapi for 5 minutes prior to coverslipping. […] Fluorescence images were taken using a Leica DM400B Compound Microscope and overlaid for analysis.
(§2) Tumor constructs were biofabricated once more, after which they were maintained for 3 days prior to drug screening. […] Drug effects were quantified by MTS assays and immunohistochemistry. MTS assays (CellTiter 96 One Solution Reagent Promega, Madison, Wis.) determined relative cell number by quantifying mitochondrial metabolism. Absorbance values were determined on a Molecular Devices SpectrumMax M5 (Molecular Devices) tunable plate reader system at a wavelength of 490 nm.
(§3) Immunohistochemisty staining was performed using biomarkers Annexin V and Ki67 on 5 μm thick organoid sections. […] Fluorescence images were taken using a Leica DM400B Compound Microscope, images were taken of sections next to each other in GFP for Annexin V and Ki67 and overlaid for analysis; Annexin V images were colored red (medium grey in black and white images) and Ki67 images were colored green (light grey in black and white images).

[2] = test system: HCT116 organoids; experiment: Biomarker-driven drug study on control organoids (MTS, Annexin V/Ki67 IHC, H&E); format: cell-based; conditions: 0.1 μM, 1 μM, 10 μM; 96 hours
Procedure: as §1, §2, §3

[3] = test system: HCT116 cells; conditions: literature reference 31; cited from earlier work

Nc1nccc2c1ncn2[C@@H]1C=C(CO)[C@@H](O)[C@H]1O [DZNep, 3-deazaneplanocin A]
Annexin V and Ki67 immunohistochemistry [1]: Annexin V appears to increase in mesothelioma with increase in DZNep concentration; also recorded: increasing trend in annexin V expression; also recorded: higher ratios of Annexin V to Ki67 | Hematoxylin and eosin staining, cell morphology [1]: ghost cells and those without nuclei; also recorded: loss of normal morphology and appearance of ghost cells with no nuclei | proliferation / mitochondrial metabolism (MTS assay) [1]: significant decrease in mesothelioma proliferation; also recorded: decrease in mitochondrial metabolism; also recorded: decreased mitochondrial metabolism | Annexin V and Ki67 immunohistochemistry [2]: minimal change in proliferation | Hematoxylin and eosin staining, cell morphology [2]: not present in any HCT116 treatments; also recorded: do not show this dose dependent change | proliferation / mitochondrial metabolism (MTS assay) [2]: no significant decrease in HCT116 proliferation; also recorded: little effect; also recorded: do not appear to respond negatively | effect on HCT116 cells upon treatment [3]: cell cycle arrest, but not necessarily significant levels of cell death
